{
  "source": "patent US20040116523A1",
  "about": "“Use of c4-c10 acids for preventing gram-negative bacterial infections” (priority 2000, published 2004)",
  "key": {"[1]": {"system": "iagA′-lacZ fusion (S. typhi strain Ty267)", "assay": "β-galactosidase activity of the iagA′-lacZ fusion in favourable LB medium", "type": "cell-based", "conditions": "for β-Galactosidase activity of the iagA′-lacZ fusion (Table VII): fatty acid as sodium salt, control 22022 ± 1177; for β-Galactosidase activity of the iagA′-lacZ fusion (Table VII) / inhibition of the expression of the iagA′-lacZ fusion in S. typhi (in words) / β-galactosidase activity of the iagA′-lacZ fusion (Table II): 5 mM in favourable LB medium, 6 hours at 37° C.; for inhibition of the expression of the iagA′-lacZ fusion in S. typhi (in words): sodium salt; for β-galactosidase activity of the iagA′-lacZ fusion (Table II): control 12134 ± 1811", "procedure": "(§1) The favourable LB medium (high osmolarity and concentration of Ca^2+ions) was defined as being the standard LB medium modified so as to have a final NaCl concentration of 300 mM and a final Ca concentration of 5 mM.\nEach of the strains described above was cultured at 37° C. on agar or in TCS broth. The P-galactosidase activity was determined using 4-methyl-umbelliferyl-p-D-galactopyranoside sold by the company Sigma, according to the technique of Klarsfeld et al. (Mol. Mibrobiol., 1994, 13, 585-597). The results, expressed in P-galactosidase units (fluorescence per hour and per OD600), represent the mean of the values obtained in at least three independent experiments. The standard deviations were less than 10% of the values presented. […]\nThe β-galactosidase activity of the iagA′-lacZ fusion was measured after incubation for 6 hours at 37° C. with shaking (200 rpm).\nThe S. typhi Ty267 strain (iagA′-lacZ fusion) was seeded into favourable LB medium and into favourable LB medium containing the fatty acid to be tested, in the form of its sodium salt, at the final concentration of 5 mM."}, "[2]": {"system": "invF′-lacZ fusion (S. typhi strain Ty272)", "assay": "β-galactosidase activity of the invF′-lacZ fusion in favourable LB medium", "type": "cell-based", "conditions": "LB medium with 300 mM NaCl and 1 mM EGTA (depleted of divalent cations) versus favourable LB medium", "procedure": "as §1\n(§2) Each of the strains described above was cultured at 37° C. on agar or in TCS broth. The P-galactosidase activity was determined using 4-methyl-umbelliferyl-p-D-galactopyranoside sold by the company Sigma, according to the technique of Klarsfeld et al. (Mol. Mibrobiol., 1994, 13, 585-597). The results, expressed in P-galactosidase units (fluorescence per hour and per OD600), represent the mean of the values obtained in at least three independent experiments. The standard deviations were less than 10% of the values presented.\n(§3) For this, the S. typhi strains Ty267, Ty272 and Ty277, which carry the iagA′-lacZ, invF′-lacZ and sipB′-lacZ fusions, respectively, (see Table I), were cultured in the favourable LB or unfavourable LB medium.\n(§4) The action of these two compounds on the expression of the iagA′-lacZ, invF′-lacZ and sipB′-lacZ fusions was studied by measuring the β-galactosidase activity expressed by these fusions as a function of the time of culturing (samples removed every two hours)."}, "[3]": {"system": "sipB′-lacZ fusion (S. typhi strain Ty277)", "assay": "β-galactosidase activity of the sipB′-lacZ fusion in favourable LB medium", "type": "cell-based", "conditions": "LB medium with 300 mM NaCl and 1 mM EGTA (depleted of divalent cations) versus favourable LB medium", "procedure": "as §1, §2, §3, §4"}, "[4]": {"system": "Gram-positive or Gram-negative microorganisms", "conditions": "acid pH (free acid form); cited from earlier work"}, "[5]": {"system": "Gram-positive or Gram-negative bacteria", "conditions": "in vitro, concentration not given; cited from earlier work"}, "[6]": {"system": "iagA′-lacZcat fusion in S. typhi strain Ty267", "assay": "\"Biotype 100\" plate screen for carbon-based substrates that repress the iagA′-lacZcat fusion (β-galactosidase activity)", "type": "cell-based", "conditions": "\"Biotype 100\" cupule, amount of substrate not known; favourable LB medium; 36 hours at 37° C.; control cupule without substrate 11 250", "procedure": "as §2\nA “Biotype 100”® plate sold by the company BioMerieux is composed of 100 microcupules. Each micro-cupule contains a dehydrated carbon-based substrate, with the exception of the first cupule, which is a control without substrate (the amount of dehydrated substrate per cupule is not given by the manufacturer).\nIn the context of the present example, these plates were used to search for carbon-based compounds which would block the expression of the invasion genes in Salmonella.\nFor this, the S. typhi strain Ty267, which is a derivative of the parental strain Ty2 carrying the iagA′-lacZcat transcriptional fusion (Table I), was cultured in TCS broth for 18 hours at 37° C. with shaking (200 rpm).\nThis culture was then diluted 100-fold in favourable LB medium (0.6 ml of culture for 60 ml of favourable LB), and then this suspension was used immediately to seed the 100 cupules of a “Biotype 100”® plate, in a proportion of 450 μl of suspension per cupule.\nAfter incubation for 36 hours in an incubator at 37° C., the activity of the iagA′-lacZcat fusion in the Ty267 strain was determined for the culture of each cupule.\nBy comparing the value of the P-galactosidase activity measured in a cupule containing a carbon-based substrate with that of the control cupule without substrate, it was possible to investigate whether a substrate had no effect on, activated or repressed the expression of the iagA′-lacZcat fusion.\nThe S. typhi strain Ty267 (iagA′-lacZ fusion), suspended in the favourable LB medium, was used to seed the “Biotype 100”® plates.\nThe β-galactosidase activity expressed by the iagA′-lacZ fusion was determined for the culture in each cupule. With respect to the β-galactosidase activity measured in the control cupule without substrate (11 250 β-galactosidase units), no substrate caused an increase in the expression of the iagA′-lacZ fusion."}, "Salmonellae": {"system": "Salmonellae", "assay": "Bactericidal or bacteriostatic effect on the Salmonellae at neutral pH", "type": "cell-based, Salmonella"}},
  "data": [
    {"smiles": "CCCCCCC(N)C(=O)O", "note": "(stereo not shown) [2-Aminocaprylic acid]", "values": [
      {"measurement": "β-Galactosidase activity of the iagA′-lacZ fusion (Table VII)", "setting": "[1]", "value": "33149 ± 2520 β-galactosidase units"},
      {"measurement": "inhibition of the expression of the iagA′-lacZ fusion in S. typhi (in words)", "setting": "[1]", "value": "totally blocks the inhibitory activity"}
    ]},
    {"smiles": "CCCCCCC(O)C(=O)O", "note": "(stereo not shown) [2-Hydroxycaprylic acid]", "values": [
      {"measurement": "β-Galactosidase activity of the iagA′-lacZ fusion (Table VII)", "setting": "[1]", "value": "225 ± 72 β-galactosidase units"},
      {"measurement": "inhibition of the expression of the iagA′-lacZ fusion in S. typhi (in words)", "setting": "[1]", "value": "does not modify the expression"}
    ]},
    {"smiles": "NCCCCCCCC(=O)O", "note": "[8-Aminocaprylic acid]", "values": [
      {"measurement": "β-Galactosidase activity of the iagA′-lacZ fusion (Table VII)", "setting": "[1]", "value": "18077 ± 1263 β-galactosidase units"},
      {"measurement": "inhibition of the expression of the iagA′-lacZ fusion in S. typhi (in words)", "setting": "[1]", "value": "totally blocks the inhibitory activity"}
    ]},
    {"smiles": "O=C(O)CCCCCCCO", "note": "[8-Hydroxycaprylic acid]", "values": [
      {"measurement": "β-Galactosidase activity of the iagA′-lacZ fusion (Table VII)", "setting": "[1]", "value": "593 ± 49 β-galactosidase units"},
      {"measurement": "inhibition of the expression of the iagA′-lacZ fusion in S. typhi (in words)", "setting": "[1]", "value": "does not modify the expression"}
    ]},
    {"smiles": "CC(=O)O", "note": "[Acetic acid]", "values": [
      {"measurement": "β-Galactosidase activity of the iagA′-lacZ fusion (Table VII)", "setting": "[1]", "value": "29265 ± 1692 β-galactosidase units"},
      {"measurement": "inhibition of the expression of the iagA′-lacZ fusion in S. typhi (in words)", "setting": "[1]", "value": "do not make it possible to inhibit"}
    ]},
    {"smiles": "CCCC(=O)O", "note": "[Butyric acid]", "values": [
      {"measurement": "β-Galactosidase activity of the iagA′-lacZ fusion (Table VII)", "setting": "[1]", "value": "21225 ± 1741 β-galactosidase units"},
      {"measurement": "inhibition of the expression of the iagA′-lacZ fusion in S. typhi (in words)", "setting": "[1]", "value": "do not make it possible to inhibit"}
    ]},
    {"smiles": "CCCCCC(=O)O", "note": "[Caproic acid]", "values": [
      {"measurement": "β-Galactosidase activity of the iagA′-lacZ fusion (Table VII)", "setting": "[1]", "value": "347 ± 21 β-galactosidase units"},
      {"measurement": "inhibition of the expression of the iagA′-lacZ fusion in S. typhi (in words)", "setting": "[1]", "value": "as strongly as sodium caprylate"}
    ]},
    {"smiles": "O=C(O)CN(CCOCCOCCN(CC(=O)O)CC(=O)O)CC(=O)O", "note": "[EGTA, ethylene glycol bis(β-aminoethyl ether) N,N,N′,N′-tetraacetic acid]", "values": [
      {"measurement": "expression of the iagA′-lacZ fusion", "setting": "[1]; LB medium with 300 mM NaCl and 1 mM EGTA (depleted of divalent cations) versus favourable LB medium", "value": "repression"},
      {"measurement": "expression of the invF′-lacZ fusion", "setting": "[2]", "value": "repression"},
      {"measurement": "expression of the sipB′-lacZ fusion", "setting": "[3]", "value": "repression"}
    ]},
    {"smiles": "CCCCCCC(=O)O", "note": "[Oenanthic acid]", "values": [
      {"measurement": "β-Galactosidase activity of the iagA′-lacZ fusion (Table VII)", "setting": "[1]", "value": "525 ± 43 β-galactosidase units"},
      {"measurement": "inhibition of the expression of the iagA′-lacZ fusion in S. typhi (in words)", "setting": "[1]", "value": "as strongly as sodium caprylate"}
    ]},
    {"smiles": "CCCCCCCCC(=O)O", "note": "[Pelargonic acid]", "values": [
      {"measurement": "β-Galactosidase activity of the iagA′-lacZ fusion (Table VII)", "setting": "[1]", "value": "383 ± 54 β-galactosidase units"},
      {"measurement": "inhibition of the expression of the iagA′-lacZ fusion in S. typhi (in words)", "setting": "[1]", "value": "as strongly as sodium caprylate"}
    ]},
    {"smiles": "CCC(=O)O", "note": "[Propionic acid]", "values": [
      {"measurement": "β-Galactosidase activity of the iagA′-lacZ fusion (Table VII)", "setting": "[1]", "value": "14650 ± 1333 β-galactosidase units"},
      {"measurement": "inhibition of the expression of the iagA′-lacZ fusion in S. typhi (in words)", "setting": "[1]", "value": "do not make it possible to inhibit"}
    ]},
    {"smiles": "CCCCC(=O)O", "note": "[Valeric acid]", "values": [
      {"measurement": "β-Galactosidase activity of the iagA′-lacZ fusion (Table VII)", "setting": "[1]", "value": "509 ± 91 β-galactosidase units"},
      {"measurement": "inhibition of the expression of the iagA′-lacZ fusion in S. typhi (in words)", "setting": "[1]", "value": "as strongly as sodium caprylate"}
    ]},
    {"smiles": "CCCCCCCCCC(=O)O", "note": "[decanoic acid]", "values": [
      {"measurement": "bactericidal activity on a great variety of Gram-positive or Gram-negative microorganisms", "setting": "[4]", "value": "bactericidal activity"}
    ]},
    {"smiles": "CCCCC/C=C\\C/C=C\\CCCCCCCC(=O)O", "note": "[linoleic acid]", "values": [
      {"measurement": "bacteriostatic or bactericidal effect on Gram-positive or Gram-negative bacteria", "setting": "[5]", "value": "very effective"}
    ]},
    {"smiles": "CCCCCC(=O)O", "note": "[n-hexanoic acid]", "values": [
      {"measurement": "bactericidal activity on a great variety of Gram-positive or Gram-negative microorganisms", "setting": "[4]", "value": "bactericidal activity"}
    ]},
    {"smiles": "CCCCCCCC/C=C\\CCCCCCCC(=O)O", "note": "[oleic acid]", "values": [
      {"measurement": "bacteriostatic or bactericidal effect on Gram-positive or Gram-negative bacteria", "setting": "[5]", "value": "very effective"}
    ]},
    {"smiles": "O=C([O-])CCc1ccccc1.[Na+]", "note": "[sodium 3-phenylpropionate]", "values": [
      {"measurement": "β-galactosidase activity expressed by the iagA′-lacZ fusion in the cupule", "setting": "[6]", "value": "166 β-galactosidase units"},
      {"measurement": "β-galactosidase activity of the iagA′-lacZ fusion (Table II)", "setting": "[1]", "value": "297 ± 95 β-galactosidase units"},
      {"measurement": "inhibition of the expression of the iagA′-lacZ fusion in S. typhi (in words)", "setting": "[1]", "value": "inhibit"},
      {"measurement": "bactericidal or bacteriostatic effect on the Salmonellae", "setting": "Salmonellae", "value": "none of these compounds has any significant bactericidal or bacteriostatic effect"}
    ]},
    {"smiles": "O=C([O-])CCCc1ccccc1.[Na+]", "note": "[sodium 4-phenylbutyrate]", "values": [
      {"measurement": "β-galactosidase activity of the iagA′-lacZ fusion (Table II)", "setting": "[1]", "value": "198 ± 32 β-galactosidase units"},
      {"measurement": "inhibition of the expression of the iagA′-lacZ fusion in S. typhi (in words)", "setting": "[1]", "value": "inhibited"},
      {"measurement": "bactericidal or bacteriostatic effect on the Salmonellae", "setting": "Salmonellae", "value": "none of these compounds has any significant bactericidal or bacteriostatic effect"}
    ]},
    {"smiles": "O=C([O-])Cc1ccccc1.[Na+]", "note": "[sodium phenylacetate]", "values": [
      {"measurement": "β-galactosidase activity expressed by the iagA′-lacZ fusion in the cupule", "setting": "[6]", "value": "81 β-galactosidase units"},
      {"measurement": "β-galactosidase activity of the iagA′-lacZ fusion (Table II)", "setting": "[1]", "value": "149 ± 24 β-galactosidase units"},
      {"measurement": "inhibition of the expression of the iagA′-lacZ fusion in S. typhi (in words)", "setting": "[1]", "value": "inhibit"},
      {"measurement": "bactericidal or bacteriostatic effect on the Salmonellae", "setting": "Salmonellae", "value": "none of these compounds has any significant bactericidal or bacteriostatic effect"}
    ]}
  ]
}
